Assay results from patent US10682371B2, “Small molecule conjugates specifically activated in tumor microenvironment for targeting and use thereof” (priority 2014, dated 2020).
Where two headings read alike, the source gives them in different places.

Columns and labels:
[1] = tested on: Human breast cancer MDA-MB435 tumor tissue homogenate; assay type: biochemical; conditions: for Activation ratio (%) in homogenates from different tumor tissues: Human breast cancer MDA-MB435
How it was run: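 Compounds at 1 mg/ml incubated at 37° C. with 100 μg acidified (pH6.0) MDA-MB435 human breast tumor tissue homogenate, as a source of proteases for compound activation.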

[2] = tested on: Human heart; assay type: biochemical; conditions: for Activation ratio (%) in homogenates from different tumor tissues: Human heart, 1 mg/ml
[3] = tested on: Human chronic leukemia K562 tumor tissue homogenate; assay type: biochemical; conditions: for Activation ratio (%) in homogenates from different tumor tissues: Human chronic leukemia K562
How it was run: (§1)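 Protease activation of compounds was measured in acidized tissue homogenates at 37° C, using 1 mg/ml compound per 100 μg homogenate.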

[4] = tested on: Human colon cancer HT-29 tumor tissue homogenate; assay type: biochemical; conditions: for Activation ratio (%) in homogenates from different tumor tissues: Human colon cancer HT-29
How it was run: as §1

[5] = tested on: Human liver cancer Hepg2 tumor tissue homogenate; assay type: biochemical; conditions: for Activation ratio (%) in homogenates from different tumor tissues: Human liver cancer Hepg2
How it was run: as §1

[6] = tested on: Human non-small cell lung cancer A549 tumor tissue homogenate; assay type: biochemical; conditions: for Activation ratio (%) in homogenates from different tumor tissues: Human non-small cell lung cancer A549
How it was run: as §1

[7] = tested on: Human ovarian cancer SK-OV-3 tumor tissue homogenate; assay type: biochemical; conditions: for Activation ratio (%) in homogenates from different tumor tissues: Human ovarian cancer SK-OV-3
How it was run: as §1

[8] = tested on: Human pancreatic cancer Panc-1 tumor tissue homogenate; assay type: biochemical; conditions: for Activation ratio (%) in homogenates from different tumor tissues: Human pancreatic cancer Panc-1
How it was run: as §1

[9] = tested on: Human prostate cancer PC-3 tumor tissue homogenate; assay type: biochemical; conditions: for Activation ratio (%) in homogenates from different tumor tissues: Human prostate cancer PC-3
How it was run: as §1

[10] = tested on: Human renal cancer OS-RC-2 tumor tissue homogenate; assay type: biochemical; conditions: for Activation ratio (%) in homogenates from different tumor tissues: Human renal cancer OS-RC-2
How it was run: as §1

[11] = tested on: D121 lung tumor cells; assay type: in vivo, C57 mice; conditions: for Treatment effects on C57 mice, in words: compared to the control group and the other treatment groups
How it was run: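 Endpoint is tumor inhibition rate from tumor size (mm^3) after weekly drug treatment for 4 weeks, begun once s.c. tumors from 10^6 live D121 cells reached 0.3-0.4 cm. Before challenge, C57 mice received three i.p. doses of 5×10^5 irradiated D121 cells, two weeks apart, or saline.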

[12] = tested on: tumor CD8+ T cells; assay type: in vivo, C57 mice; conditions: for CD8: CD45 (%): CD8 positive cells in CD45 positive cells of tumor
How it was run: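 Tumour tissue homogenised and single cells filtered, washed, then stained 1 h at ambient temperature with CD45-PE and CD8-FITC antibodies. After washes in PBS with 1% FBS, flow cytometry gave the fraction of CD8⁺ cells among CD45⁺ leucocytes.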

[13] = D121 immunized C57 mice, 13.2 μmol/kg weekly, PDL1 antibody 5 μg/kg where combined, Day 18
[14] = 1 mg/ml, acidized homogenate pH6.0, Paclitaxel release by HPLC
[15] = acidized homogenate pH6.0, Paclitaxel release by HPLC
[16] = Table 27, immunized C57 mice, D121 lung tumor, drugs weekly for 4 weeks, Day 18
[17] = Table 27, flow cytometry, immunized C57 mice, D121
[18] = 100 μg acidized homogenate pH6.0, 1 mg/ml, 37°
[19] = D121 immunized C57 mice, drugs weekly for 4 weeks, Day 18 (Example 23)
[20] = D121 immunized C57 mice (Example 23)

Molecule | Treatment effects on C57 mice, in words [11] | Activation ratio (%) in homogenates from different tumor tissues [1, 14] [%] | Activation ratio (%) in homogenates from different tumor tissues [2, 15] | Activation ratio (%) in homogenates from different tumor tissues [3, 14] [%] | Activation ratio (%) in homogenates from different tumor tissues [4, 14] [%] | Activation ratio (%) in homogenates from different tumor tissues [5, 14] [%] | Activation ratio (%) in homogenates from different tumor tissues [6, 14] [%] | Activation ratio (%) in homogenates from different tumor tissues [7, 14] [%] | Activation ratio (%) in homogenates from different tumor tissues [8, 14] [%] | Activation ratio (%) in homogenates from different tumor tissues [9, 14] [%] | Activation ratio (%) in homogenates from different tumor tissues [10, 14] [%] | Size of tumor (mm^3) Day 18 [11, 16] [mm^3] | inhibitory rate on tumor % Day 18 [11, 16] [%] | CD8: CD45 (%) [12, 17] [%] | Activation ratio (%) in homogenates from different tumor tissues [1, 18] [%] | Activation ratio (%) in homogenates from different tumor tissues ([2]; 37°) | Activation ratio (%) in homogenates from different tumor tissues [3, 18] [%] | Activation ratio (%) in homogenates from different tumor tissues [4, 18] [%] | Activation ratio (%) in homogenates from different tumor tissues [5, 18] [%] | Activation ratio (%) in homogenates from different tumor tissues [6, 18] [%] | further results
4-N—(N—(N—(N-(6-maleimido caproyl)-L-alanyl)-L-alanyl)-L-asparaginyl)-amino benzyl alcohol-MMAE-carbamate [Compound S6] | improved treatment effect as compared to the daunorubicin group | – | – | – | – | – | – | – | – | – | – | – | – | – | – | – | – | – | – | – | Activation Efficiencies (%) ([1]; Human breast cancer MDA-MB435 tumor tissue homogenate (30 μg/ml), 1 mg/ml compound): 25.6%; Activation Efficiencies (%) ([2]; Human heart homogenate, 1 mg/ml compound): 5.3%; Activation Efficiencies (%) ([3]; Human chronic leukemia K562 tumor tissue homogenate (30 μg/ml), 1 mg/ml compound): 28.4%; Activation Efficiencies (%) ([4]; Human colon cancer HT-29 tumor tissue homogenate (30 μg/ml), 1 mg/ml compound): 22.4%; Activation Efficiencies (%) ([5]; Human liver cancer Hepg2 tumor tissue homogenate (30 μg/ml), 1 mg/ml compound): 26.7%; Activation Efficiencies (%) ([6]; Human non-small cell lung cancer A549 tumor tissue homogenate (30 μg/ml), 1 mg/ml compound): 27.4%; Activation Efficiencies (%) ([7]; Human ovarian cancer SK-OV-3 tumor tissue homogenate (30 μg/ml), 1 mg/ml compound): 23.5%; Activation Efficiencies (%) ([8]; Human pancreatic cancer Panc-1 tumor tissue homogenate (30 μg/ml), 1 mg/ml compound): 17.3%; Activation Efficiencies (%) ([9]; Human prostate cancer PC-3 tumor tissue homogenate (30 μg/ml), 1 mg/ml compound): 13.2%; Activation Efficiencies (%) ([10]; Human renal cancer OS-RC-2 tumor tissue homogenate (30 μg/ml), 1 mg/ml compound): 20.4%; Inhibitory rate on tumor Day 18 [11, 13]: 29.47; Size of tumor (mm^3) Day 18 [11, 13]: 957.46 ± 257.87 mm^3; CD8: D45 (%) ([12]; D121 immunized C57 mice, 13.2 μmol/kg, ratio of CD8 positive cells in CD45 positive cells of tumor): 13.0%
COCCOCC(=O)NCCCC[C@H](NC(=O)COCCOC)C(=O)N[C@H](C)C(=O)N[C@H](C)C(=O)N[C@H](CC(N)=O)C(=O)Nc1ccc(COC(=O)OC(C(=O)OC2C[C@@]3(O)[C@@H](OC(=O)c4ccccc4)[C@H]4[C@](C)(C(=O)[C@H](OC(C)=O)C(=C2C)C3(C)C)[C@@H](O)CC2OC[C@]24OC(C)=O)[C@@H](NC(=O)c2ccccc2)c2ccccc2)cc1 (stereo partly shown) [Compound A1] | greatly improved | 95.6 | none | 67.7 | 82.4 | 98.3 | 89.5 | 91.4 | 97.8 | 100.3 | 89.2 | 261.36 ± 178.3 | 84.52 | 20.4 | – | – | – | – | – | – | activation efficiency (%) ([1]; Table 24, acidized human breast cancer (MDA-MB435) tumor tissue homogenates pH6.0, 1 mg/ml, Paclitaxel release by HPLC): 95.1%; Effect together with PDL1-antibody in promoting immunization and treatment, in words ([11]; combination with PDL1-antibody): excellent synergistic effect
COCCOCCOCCOCCOCCOCC(=O)N[C@H](C)C(=O)N[C@H](C)C(=O)N[C@H](CC(N)=O)C(=O)Nc1ccc(COC(=O)OC(C(=O)OC2C[C@@]3(O)[C@@H](OC(=O)c4ccccc4)[C@H]4[C@](C)(C(=O)[C@H](OC(C)=O)C(=C2C)C3(C)C)[C@@H](O)CC2OC[C@]24OC(C)=O)[C@@H](NC(=O)c2ccccc2)c2ccccc2)cc1 (stereo partly shown) [S2′] | greatly improved | – | – | – | – | – | – | – | – | – | – | – | – | – | 91.4 | none | 73.3 | 89.9 | 84.6 | 89.4 | Activation ratio (%) in homogenates from different tumor tissues [7, 18]: 84.6%; Activation ratio (%) in homogenates from different tumor tissues [8, 18]: 93.8%; Activation ratio (%) in homogenates from different tumor tissues [9, 18]: 98.4%; Activation ratio (%) in homogenates from different tumor tissues [10, 18]: 91.5%; Size of tumor (mm^3) Day 18 [11, 19]: 331.57 ± 114.74 mm^3; inhibitory rate on tumor % Day 18 [11, 19]: 78.9%; CD8: CD45 (%) [12, 20]: 18.1%
COCCOCCOCCOCCOCCOCCOCCOCCOCCOCCOCCOCC(=O)N[C@H](C)C(=O)N[C@H](C)C(=O)N[C@H](CC(N)=O)C(=O)Nc1ccc(COC(=O)OC(C(=O)OC2C[C@@]3(O)[C@@H](OC(=O)c4ccccc4)[C@H]4[C@](C)(C(=O)[C@H](OC(C)=O)C(=C2C)C3(C)C)[C@@H](O)CC2OC[C@]24OC(C)=O)[C@@H](NC(=O)c2ccccc2)c2ccccc2)cc1 (stereo partly shown) [S3′] | greatly improved | – | – | – | – | – | – | – | – | – | – | – | – | – | 90.4 | none | 70.2 | 91.4 | 83.5 | 81.4 | activation efficiency (%) ([1]; human breast cancer (MDA-MB435) tumor tissue homogenates pH6.0, 100 μg, 1 mg/ml, control compounds vs S1′-S4′): 91.5%; Activation ratio (%) in homogenates from different tumor tissues [7, 18]: 79.3%; Activation ratio (%) in homogenates from different tumor tissues [8, 18]: 91.5%; Activation ratio (%) in homogenates from different tumor tissues [9, 18]: 96.3%; Activation ratio (%) in homogenates from different tumor tissues [10, 18]: 86.4%; Size of tumor (mm^3) Day 18 [11, 19]: 357.63 ± 194.54 mm^3; inhibitory rate on tumor % Day 18 [11, 19]: 77.3%; CD8: CD45 (%) [12, 20]: 16.7%
COCCOCCOCCOCCOCCOCC(=O)NCCCC[C@H](NC(=O)COCCOCCOCCOCCOCCOC)C(=O)N[C@H](C)C(=O)N[C@H](C)C(=O)N[C@H](CC(N)=O)C(=O)Nc1ccc(COC(=O)OC(C(=O)OC2C[C@@]3(O)[C@@H](OC(=O)c4ccccc4)[C@H]4[C@](C)(C(=O)[C@H](OC(C)=O)C(=C2C)C3(C)C)[C@@H](O)CC2OC[C@]24OC(C)=O)[C@@H](NC(=O)c2ccccc2)c2ccccc2)cc1 (stereo partly shown) [Compound A2] | greatly improved | 94.4 | none | 76.3 | 92.9 | 87.6 | 92.4 | 88.6 | 93.8 | 101.4 | 94.5 | 375.727 ± 247.3 | 77.74 | 19.4 | – | – | – | – | – | – | –
